Legend:
[1] = target: T1, K-Ras G12S (Homo sapiens, UniProt P01116, G12S); assay: HTRF assay of the K-Ras / SOS1 interaction; format: biochemical; conditions: IC50 (against K-Ras G12D) to IC50 (against K-Ras G12S)
T1 construct: made in house; host or cells: E. coli (e.g., BL21 (DE3))
Summary of the method: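 Compounds (duplicates, 10 µM to 0.01 µM) were incubated ≥~10 min with Eu-labelled GST-K-Ras G12S and XL665-labelled His-hSOS1 in HEPES pH 7.4 buffer containing NaCl, DTT, BSA and Igepal. Disruption measured as HTRF emission ratio 665/620 nm, fitted to IC50.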

[2] = target: T2, KRAS protein (His-tagged GDP-loaded G12S 1-169) (Homo sapiens, UniProt P01116, G12S); assay: Covalent modification of KRAS protein, intact-protein LC-MS; format: binding; conditions: 24hrs at room temperature, KRAS protein ~2 µM
T2 construct: His-tagged GDP-loaded G12S 1-169
Protocol: Test compounds are prepared as 10 mM stock solutions in DMSO (Fisher cat#BP231-100). KRAS protein (His-tagged GDP-loaded wildtype 1-169, His-tagged GDP-loaded G12S 1-169 or His-tagged GDP-loaded G12D 1-169) is diluted to ~2 µM in appropriate buffer (e.g., a Hepes buffer at physiological conditions). For testing KRAS modification, compounds are diluted to 50X final test concentration in DMSO in 96-well storage plates. 2 µl of the diluted 50X compounds are added to appropriate wells in the PCR plate (Fisher cat#AB-0800). […] of the stock protein solution is added to each well of the 96-well PCR plate. Reactions are mixed carefully. The plate is sealed well with aluminum plate seal, and stored in drawer at room temperature for 24hrs. 5 µl of 2% formic acid (Fisher cat#A1 17-50) in MilliQ H2O is then added to each well followed by mixing with a pipette. The plate is then resealed with aluminum seal and stored until mass spectrometry analysis.
The extent of covalent modification of KRAS proteins was determined by liquid chromatography electrospray mass spectrometry analysis of the intact proteins on a Thermo Q-Exactive Plus mass spectrometer. 20 µl of sample was injected onto a bioZen 3.6 µm Intact C4 column (Phenomenex cat#00B-4767-AN) placed in a column oven set to 40°C and separated using a suitable LC gradient from -20% to ~60% solvent B. Solvent A was 0.1% formic acid and solvent B was 0.1% formic acid in acetonitrile. HESI source settings were set to 40, 5 and 1 for the sheath, auxiliary and sweep gas flow, respectively. The spray voltage was 4 kV, and the capillary temperature was 320°C. S-lens RF level was 50 and auxiliary gas heater temperature was set to 200°C. The mass spectrometry was acquired using a scan range from 650 to 1750 m/z using positive polarity at a mass resolution of 70,000, AGC target of 1e6 ions and maximum injection time of 250ms. The recorded protein mass spectrum was deconvoluted from the raw data file using Protein Deconvolution v4.0 (Thermo). The protein mass and adduct masses were exported with their peak intensities. The peak intensities for the unmodified and modified protein were used to calculate the percent covalent modification of the KRAS protein based on the following equation: %KRAS protein modification = ((KRAS-compound) / (KRAS) + (KRAS-Compound)) *100.

Row | SMILES | Ratio of IC50 KRAS G12D vs. IC50 KRAS G12S [1] | % G12S Modification at 24 hr. [2]
1 | Nc1nc2c(-c3c(Cl)cc4c(N5CCC6(CCN(C(=O)n7cncn7)CC6)C5)nc(OC[C@@]56CCCN5C[C@H](F)C6)nc4c3F)ccc(F)c2s1 [Compound A198, (2-(7-(2-amino-7-fluorobenzo[d]thiazol-4-yl)-6-chloro-8-fluoro-2-(((2R,7aS)-2-fluorotetrahydro-1H-pyrrolizin-7a(5H)-yl)methoxy)quinazolin-4-yl)-2,8-diazaspiro[4.5]decan-8-yl)(1H-1,2,4-triazol-1-yl)methanone] | A (A: indicates that the ratio of IC50 against KrasG12D vs. IC50 against KrasG12S is 1-fold or greater) | +++ (+++ indicates greater than 20% labelling)
2 | Nc1nc2c(-c3c(Cl)cc4c(N5CCCC6(CN(C(=O)n7cncn7)CCO6)C5)nc(OC[C@@]56CCCN5C[C@H](F)C6)nc4c3F)ccc(F)c2s1 (stereo partly drawn) [Compound A125, (8-(7-(2-amino-7-fluorobenzo[d]thiazol-4-yl)-6-chloro-8-fluoro-2-(((2R,7aS)-2-fluorotetrahydro-1H-pyrrolizin-7a(5H)-yl)methoxy)quinazolin-4-yl)-1-oxa-4,8-diazaspiro [5.5]undecan-4-yl)(1H-1,2,4-triazol-1-yl)methanone] | A (A: indicates that the ratio of IC50 against KrasG12D vs. IC50 against KrasG12S is 1-fold or greater) | ++ (++ indicates between about 1%- 20% labelling)
3 | N#Cc1c(N)sc2c(F)ccc(-c3c(Cl)cc4c(OC5CCCCN(C(=O)n6cncn6)C5)nc(OC[C@@]56CCCN5C[C@H](F)C6)nc4c3F)c12 (stereo partly drawn) [Compound A169, 4-(4-((1-(1H-1,2,4-triazole-1-carbonyl)azepan-3-yl)oxy)-6-chloro-8-fluoro-2-(((2R,7aS)-2-fluorotetrahydro-1H-pyrrolizin-7a(5H)-yl)methoxy)quinazolin-7-yl)-2-amino-7-fluorobenzo[b]thiophene-3-carbonitrile] | A (A: indicates that the ratio of IC50 against KrasG12D vs. IC50 against KrasG12S is 1-fold or greater) | +++ (+++ indicates greater than 20% labelling)
4 | Cc1ncn(C(=O)N2CCCC(Oc3nc(OC[C@@]45CCCN4C[C@H](F)C5)nc4c(F)c(-c5ccc(F)c6sc(N)c(C#N)c56)c(Cl)cc34)C2)n1 (stereo partly drawn) [Compound A302, 2-amino-4-(6-chloro-8-fluoro-2-(((2R,7aS)-2-fluorotetrahydro-1H-pyrrolizin-7a(5H)-yl)methoxy)-4-((1-(3-methyl-1H-1,2,4-triazole-1-carbonyl)piperidin-3-yl)oxy)quinazolin-7-yl)-7-fluorobenzo[b]thiophene-3-carbonitrile] | A (A: indicates that the ratio of IC50 against KrasG12D vs. IC50 against KrasG12S is 1-fold or greater) | ++ (++ indicates between about 1%- 20% labelling)
5 | N#Cc1c(N)sc2c(F)ccc(-c3c(Cl)cc4c(O[C@@H]5CCN(C(=O)n6cncn6)C5)nc(OCC56CCCN5C[C@H](F)C6)nc4c3F)c12 (stereo partly drawn) [Compound A213, 4-(4-(((R)-1-(1H-1,2,4-triazole-1-carbonyl)pyrrolidin-3-yl)oxy)-6-chloro-8-fluoro-2-(((2R)-2-fluorotetrahydro-1H-pyrrolizin-7a(5H)-yl)methoxy)quinazolin-7-yl)-2-amino-7-fluorobenzo[b]thiophene-3-carbonitrile] | A (A: indicates that the ratio of IC50 against KrasG12D vs. IC50 against KrasG12S is 1-fold or greater) | ++ (++ indicates between about 1%- 20% labelling)
6 | N#Cc1cnn(C(=O)N2CCCN(c3nc(OC[C@@]45CCCN4C[C@H](F)C5)nc4c(F)c(-c5ccc(F)c6sc(N)nc56)c(Cl)cc34)CC2)c1 [Compound A231, 1-(4-(7-(2-amino-7-fluorobenzo[d]thiazol-4-yl)-6-chloro-8-fluoro-2-(((2R,7aS)-2-fluorotetrahydro-1H-pyrrolizin-7a(5H)-yl)methoxy)quinazolin-4-yl)-1,4-diazepane-1-carbonyl)-1H-pyrazole-4-carbonitrile] | A (A: indicates that the ratio of IC50 against KrasG12D vs. IC50 against KrasG12S is 1-fold or greater) | ++ (++ indicates between about 1%- 20% labelling)
7 | N#Cc1c(N)sc2c(F)ccc(-c3c(Cl)cc4c(N5CC6CCCN(C(=O)n7cncn7)C6C5)nc(OC[C@@]56CCCN5C[C@H](F)C6)nc4c3F)c12 (stereo partly drawn) [Compound A284, 4-(4-(1-(1H-1,2,4-triazole-1-carbonyl)octahydro-6H-pyrrolo[3,4-b]pyridin-6-yl)-6-chloro-8-fluoro-2-(((2R,7aS)-2-fluorotetrahydro-1H-pyrrolizin-7a(5H)-yl)methoxy)quinazolin-7-yl)-2-amino-7-fluorobenzo[b]thiophene-3-carbonitrile] | A (A: indicates that the ratio of IC50 against KrasG12D vs. IC50 against KrasG12S is 1-fold or greater) | +++ (+++ indicates greater than 20% labelling)
8 | N#Cc1cccn1C(=O)N1CCN(c2nc(OC[C@@]34CCCN3C[C@H](F)C4)nc3c(F)c(-c4ccc(F)c5sc(N)nc45)c(Cl)cc23)CC(F)(F)C1 [Compound A114, 1-(4-(7-(2-amino-7-fluorobenzo[d]thiazol-4-yl)-6-chloro-8-fluoro-2-(((2R,7aS)-2-fluorotetrahydro-1H-pyrrolizin-7a(5H)-yl)methoxy)quinazolin-4-yl)-6,6-difluoro-1,4-diazepane-1-carbonyl)-1H-pyrrole-2-carbonitrile] | A (A: indicates that the ratio of IC50 against KrasG12D vs. IC50 against KrasG12S is 1-fold or greater) | +++ (+++ indicates greater than 20% labelling)
9 | Nc1nc2c(-c3c(Cl)cc4c(N5CCC6(CC5)CN(C(=O)n5cncn5)CCO6)nc(OC[C@@]56CCCN5C[C@H](F)C6)nc4c3F)ccc(F)c2s1 [Compound A225, (9-(7-(2-amino-7-fluorobenzo[d]thiazol-4-yl)-6-chloro-8-fluoro-2-(((2R,7aS)-2-fluorotetrahydro-1H-pyrrolizin-7a(5H)-yl)methoxy)quinazolin-4-yl)-1-oxa-4,9-diazaspiro [5.5]undecan-4-yl)(1H-1,2,4-triazol-1-yl)methanone] | A (A: indicates that the ratio of IC50 against KrasG12D vs. IC50 against KrasG12S is 1-fold or greater) | ++ (++ indicates between about 1%- 20% labelling)
10 | N#Cc1c(N)sc2c(F)ccc(-c3c(Cl)cc4c(N5CC(F)(F)C6CN(C(=O)n7cncn7)CCC65)nc(OC[C@@]56CCCN5C[C@H](F)C6)nc4c3F)c12 (stereo partly drawn) [Compound A263, 2-amino-4-(6-chloro-4-(3,3-difluoro-5-(1H-1,2,4-triazole-1-carbonyl)octahydro-1H-pyrrolo[3,2-c]pyridin-1-yl)-8-fluoro-2-(((2R,7aS)-2-fluorotetrahydro-1H-pyrrolizin-7a(5H)-yl)methoxy)quinazolm-7-yl)-7-fluorobenzo[b]thiophene-3-carbonitrile] | A (A: indicates that the ratio of IC50 against KrasG12D vs. IC50 against KrasG12S is 1-fold or greater) | ++ (++ indicates between about 1%- 20% labelling)
11 | N#Cc1nccn1C(=O)N1CC2CN(c3nc(OC[C@@]45CCCN4C[C@H](F)C5)nc4c(F)c(-c5ccc(F)c6sc(N)nc56)c(Cl)cc34)CC2C1 (stereo partly drawn) [Compound A236, 1-(5-(7-(2-amino-7-fluorobenzo[d]thiazol-4-yl)-6-chloro-8-fluoro-2-(((2R,7aS)-2-fluorotetrahydro-1H-pyrrolizin-7a(5H)-yl)methoxy)quinazolin-4-yl)octahydropyrrolo[3,4-c]pyrrole-2-carbonyl)-1H-imidazole-2-carbonitrile] | A (A: indicates that the ratio of IC50 against KrasG12D vs. IC50 against KrasG12S is 1-fold or greater) | ++ (++ indicates between about 1%- 20% labelling)

Source: patent EP4389751A1, “HETEROCYCLIC COMPOUNDS AND USES THEREOF” (Kumquat Biosciences Inc., priority 2021, dated 2024)
